Molecular target: MASP-2 CCP2-SP (Homo sapiens (Human), UniProt O00187)
Experiment: MASP-2 co-crystallization, X-ray crystallography and structure analysis (H-bonds, van der Waals contacts);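 for Ligand-pharmacophore element distance, pharmacophore element C2: distance from averaged pharmacophore element to bound ligand; missing value means element absent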;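 for Ligand-pharmacophore element distance, pharmacophore element C3: distance from averaged pharmacophore element to bound ligand; missing value means element absent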;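 for Ligand-pharmacophore element distance, pharmacophore element C4: distance from averaged pharmacophore element to bound ligand; missing value means element absent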;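 for Ligand-pharmacophore element distance, pharmacophore element C5: distance from averaged pharmacophore element to bound ligand; missing value means element absent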
Design: van der Waals contact distance, MASP-2 HIS 483 atom CD2 / van der Waals contact distance, MASP-2 HIS 483 atom NE2 / van der Waals contact distance, SER 654 C to compound atom / van der Waals contact distance, SER 654 O to compound atom / van der Waals contact distance, TRP 655 C to compound atom / van der Waals contact distance, MASP-2 GLY 528 atom CA / van der Waals contact distance TRP 655 atom CZ3 / van der Waals contact distance TRP 655 atom N / van der Waals contact distance TRP 655 atom CE3 / van der Waals contact distance GLY 656 atom C / van der Waals contact distance GLY 656 atom CA / van der Waals contact distance GLY 656 atom O / van der Waals contact distance, MASP-2 TYR 607 atom CD1 / van der Waals contact distance, MASP-2 PRO 606 atom O / d(C3,CA1) / d(CA1,N1)2 / d(H4,O1) / d(H4,O2) / d(O1,O2) / d(CA1,O2) / d(CA6,O1) / d(CA6,O2) / d(CA1,C5) / d(O2,H3) / d(N2,C2) / d(CA5,N2) / d(N2,C4) / d(N2,C6) / d(N2,CA3) / d(N2,O3) / d(O4,H2): unit not given beside the values
Details: for Ligand-pharmacophore element distance, pharmacophore element C2 / Ligand-pharmacophore element distance, pharmacophore element C3 / Ligand-pharmacophore element distance, pharmacophore element C4 / Ligand-pharmacophore element distance, pharmacophore element C5 / Ligand-pharmacophore element distance, pharmacophore element C6 / Ligand-pharmacophore element distance, pharmacophore element C7 / Ligand-pharmacophore element distance, pharmacophore element CA1 / Ligand-pharmacophore element distance, pharmacophore element CA2 / Ligand-pharmacophore element distance, pharmacophore element CA3 / Ligand-pharmacophore element distance, pharmacophore element CA4 / Ligand-pharmacophore element distance, pharmacophore element CA5 / Ligand-pharmacophore element distance, pharmacophore element CA6: Table A4-1
From the text: This example illustrates the preparation of recombinant MASP-2 protein, based on UniProt O00187, human mannan-binding lectin serine protease 2. Expression constructs for human MASP-2 CCP2-SP and CCP2-SP-6HIS were generated for recombinant expression in E. coli cells.
Typically, crystallization hits were obtained by screening against […] 96-well crystallization reagent kits (GRAS6, GRAS2, Hampton Research; MORPHEUS, Molecular Dimensions; Wizard 1&2 Cryo, Rigaku Reagents) and crystal growth was inspected by optical microscopy. Crystals were used directly or further optimized for X-ray diffraction. Crystals were captured with cryogenic loops and dipped into liquid nitrogen directly or cryoprotected with a 20% glycerol in crystallization formulation before flash-cooling in liquid nitrogen.
Thereafter crystals are transferred once or twice for soaking within the crystallization solution containing the MASP-2 inhibitor.
Crystals were diffracted with synchrotron X-rays of […] and X-ray diffraction datasets were collected at beamlines SSRL BL9-2, BL14-1, BL12-2 as well as ALS sector 5 using Dectris Pilatus and Eiger detectors. Structures were determined by molecular replacement using portions of the structure 1Q3X as search models and partially refined with Buster 2.10.2 or Refmac 5.8. […] When multiple ligand poses were observed, for instance arising from multiple molecules in the asymmetric unit or refined dual poses within the same molecule, only one pose was selected and analyzed.
LigPlot+ calls these ‘nonbonded contacts’ or ‘hydrophobic contacts’. Despite the name, there are atom pairings that include possible H-bonds. Thus, in some instances, the Table A2 also contains H-bond interactions.

[1] = Table A5-1 pharmacophore: distance between elements, S2/S1 region
[2] = Table A5-2 pharmacophore distance, S3/S4 region
[3] = Table A7-1, between pharmacophore elements of the bound compound
[4] = Table A7-2, between pharmacophore elements of the bound compound
[5] = Table A8-6, nearest protein atom in cell to the left

Sequence of MASP-2 CCP2-SP (O00187 445-686): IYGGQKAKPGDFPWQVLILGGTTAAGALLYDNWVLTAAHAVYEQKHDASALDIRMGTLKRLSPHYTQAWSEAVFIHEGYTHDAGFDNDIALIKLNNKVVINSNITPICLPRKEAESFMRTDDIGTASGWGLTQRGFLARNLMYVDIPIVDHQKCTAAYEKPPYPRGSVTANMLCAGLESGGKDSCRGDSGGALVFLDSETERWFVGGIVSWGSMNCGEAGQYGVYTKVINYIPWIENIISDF
Sequence of MASP-2 CCP2-SP (O00187 364-432 partner): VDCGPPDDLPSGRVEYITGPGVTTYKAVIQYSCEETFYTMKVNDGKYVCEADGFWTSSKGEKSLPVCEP

Cc1nc(N)ccc1CNC(=O)[C@H](C)NC(=O)[C@H]1C[C@H](Cc2cccc(-c3ccccc3)c2)CN1 [compound 1406, (2R,4S)-4-([1,1′-Biphenyl]-3-ylmethyl)-N—((S)-1-(((6-amino-2-methylpyridin-3-yl)methyl)amino)-1-oxopropan-2-yl)pyrrolidine-2-carboxamide Dihydrochloric acid]
H-bond distance to MASP-2 ASP 627 atom OD2 (Table A1 (H-Bonds), ASP 627 OD2): 3.22 | H-bond distance to MASP-2 GLY 656 atom N (Table A1 (H-Bonds), GLY 656 N): 3.28 | H-bond distance to MASP-2 GLY 656 atom O (Table A1 (H-Bonds), GLY 656 O): 2.76 | H-bond distance to MASP-2 SER 654 atom O (Table A1 (H-Bonds), SER 654 O): 2.96 | H-bond distance to MASP-2 SER 657 atom O (Table A1 (H-Bonds), SER 657 O): 2.78 | van der Waals contact distance, MASP-2 amino acid atom to compound atom (Table A2): 3.74 | van der Waals contact distance, MASP-2 ASP 526 atom C (Table A2-1): 3.55 | van der Waals contact distance, MASP-2 ASP 526 atom CA (Table A2-1): 3.89 | van der Waals contact distance, MASP-2 ASP 526 atom O (Table A2-1): 3.69 | van der Waals contact distance, MASP-2 HIS 483 atom CD2 (Table A2-1): 3.7 | van der Waals contact distance, MASP-2 HIS 483 atom NE2 (Table A2-1): 3.67 | van der Waals contact distance, MASP-2 ALA 527 atom C (Table A2-2): 3.68 | van der Waals contact distance, MASP-2 ALA 527 atom CA (Table A2-2): 3.83 | van der Waals contact distance, MASP-2 amino acid atom to compound atom (Table A2-7: SER 628 (CB, O, OG)): 3.76 | van der Waals contact distance, SER 654 C to compound atom (Table A2-11): 3.59 | van der Waals contact distance, VAL 653 CG1 to compound atom (Table A2-11): 3.27 | van der Waals contact distance TRP 655 atom CE3 (Table A2-13, MASP-2 TRP 655 CE3, compound atom in line below): 3.7 | van der Waals contact distance TRP 655 atom CZ3 (Table A2-13, MASP-2 TRP 655 CZ3): 3.51 | van der Waals contact distance TRP 655 atom N (Table A2-13, MASP-2 TRP 655 N): 3.85 | Ligand-pharmacophore element distance, pharmacophore element C2: 0 | Ligand-pharmacophore element distance, pharmacophore element C3: 0.12 | Ligand-pharmacophore element distance, pharmacophore element C4: 0 | Ligand-pharmacophore element distance, pharmacophore element C5: 0 | Ligand-pharmacophore element distance, pharmacophore element C6: 0 | Ligand-pharmacophore element distance, pharmacophore element C7: 0 | Ligand-pharmacophore element distance, pharmacophore element CA1: 0.56 | Ligand-pharmacophore element distance, pharmacophore element CA2: 0.42 | Ligand-pharmacophore element distance, pharmacophore element CA3: 0 | Ligand-pharmacophore element distance, pharmacophore element CA4: 1.59 | Ligand-pharmacophore element distance, pharmacophore element CA5: 0 | Ligand-pharmacophore element distance, pharmacophore element CA6: 0 | d(C3,CA1) [1]: 2.86 | d(CA1,N1)2 [1]: 1.38 | d(CA1,O1) [1]: 4.36 | d(CA1,O2) [1]: 4.00 | d(H4,O1) [1]: 4.35 | d(H4,O2) [1]: 3.89 | d(O1,O2) [1]: 3.29 | d(N2,CA2) [2]: 5.98 | d(O2,H3) [2]: 4.44 | d(O2,N2) [2]: 2.64 | a(C3, CA1, O1) (Table A6-1 pharmacophore angle): 149.47 | a(CA1, O1, O2) (Table A6-1 pharmacophore angle): 107.31 | a(O1, O2, H4) (Table A6-1 pharmacophore angle): 133.28 | a(N1, CA1, O1) b) (Table A6-1 pharmacophore angle, Methyl-amino-pyridine compounds): 173.92 | a(O1, O2, H3) (Table A6-2 pharmacophore angle): 147.38 | a(O1, O2, N2) (Table A6-2 pharmacophore angle): 140.17 | a(O2, N2, CA2) (Table A6-2 pharmacophore angle): 156.30 | Pharmacophore torsion angle a(C3, CA1, O1, H4) [3]: 23.93 | Pharmacophore torsion angle a(H4, O1, O2, H3) [3]: 50.99 | Pharmacophore torsion angle a(H4, O1, O2, N2) [3]: 135.75 | Pharmacophore torsion angle a(N1, CA1, O1, H4) [3]: −2.51 | Pharmacophore torsion angle a(O1, H4, O2, CA1) [3]: −83.05 | Pharmacophore torsion angle a(O1, O2, N2, CA2) [4]: 127.54 | Pharmacophore torsion angle a(O1, O2, N2, CA4) [4]: 102.90

C[C@H](NC(=O)[C@H](N)CCCc1ccccc1)C(=O)NCc1ccc(C(=N)N)cc1.Cl.Cl [1042_2]
Ligand-pharmacophore element distance, pharmacophore element C2: 1.33 | Ligand-pharmacophore element distance, pharmacophore element C3: 0 | Ligand-pharmacophore element distance, pharmacophore element C4: 0 | Ligand-pharmacophore element distance, pharmacophore element C5: 0 | Ligand-pharmacophore element distance, pharmacophore element C6: 0 | Ligand-pharmacophore element distance, pharmacophore element C7: 0 | Ligand-pharmacophore element distance, pharmacophore element CA1: 0.5 | Ligand-pharmacophore element distance, pharmacophore element CA2: 0.72 | Ligand-pharmacophore element distance, pharmacophore element CA3: 0 | Ligand-pharmacophore element distance, pharmacophore element CA4: 0 | Ligand-pharmacophore element distance, pharmacophore element CA5: 0 | Ligand-pharmacophore element distance, pharmacophore element CA6: 0 | Ligand-pharmacophore element distance, pharmacophore element H1 (Table A4-2, element H1): 0 | Ligand-pharmacophore element distance, pharmacophore element H2 (Table A4-2, element H2): 0 | Ligand-pharmacophore element distance, pharmacophore element H3 (Table A4-2, element H3): 5.3 | Ligand-pharmacophore element distance, pharmacophore element H4 (Table A4-2, element H4): 3.52 | Ligand-pharmacophore element distance, pharmacophore element N1 (Table A4-2, element N1): 1.61 | Ligand-pharmacophore element distance, pharmacophore element N2 (Table A4-2, element N2): 1.72 | Ligand-pharmacophore element distance, pharmacophore element O1 (Table A4-2, element O1): 3.1 | Ligand-pharmacophore element distance, pharmacophore element O2 (Table A4-2, element O2): 0.75 | Ligand-pharmacophore element distance, pharmacophore element O3 (Table A4-2, element O3): 0 | Ligand-pharmacophore element distance, pharmacophore element O4 (Table A4-2, element O4): 0 | d(CA1,N1) [1]: 3.61 | d(CA1,O1) [1]: 4.47 | d(CA1,O2) [1]: 4.74 | d(H4,O1) [1]: 4.02 | d(H4,O2) [1]: 4.01 | d(O1,O2) [1]: 3.46 | d(N2,C2) [2]: 4.38 | d(N2,CA2) [2]: 7.44 | d(O2,H3) [2]: 5.89 | d(O2,N2) [2]: 2.86 | a(CA1, O1, O2) (Table A6-1 pharmacophore angle): 116.12 | a(O1, O2, H4) (Table A6-1 pharmacophore angle): 128.91 | A(N1, CA1, O1) a) (Table A6-1 pharmacophore angle, all compounds with protonatable center N1 except Methyl-amino-pyridine): 164.17 | a(O1, O2, H3) (Table A6-2 pharmacophore angle): 152.56 | a(O1, O2, N2) (Table A6-2 pharmacophore angle): 148.96 | a(O2, N2, C2) (Table A6-2 pharmacophore angle): 139.99 | a(O2, N2, CA2) (Table A6-2 pharmacophore angle): 158.67 | Pharmacophore torsion angle a(H4, O1, O2, H3) [3]: −9.33 | Pharmacophore torsion angle a(H4, O1, O2, N2) [3]: 44.33 | Pharmacophore torsion angle a(N1, CA1, O2, H4) [3]: 69.40 | Pharmacophore torsion angle a(O1, H4, O2, CA1) [3]: 68.80 | Pharmacophore torsion angle a(O1, O2, N2, C2) [3]: 151.54 | Pharmacophore torsion angle a(O1, O2, N2, CA2) [4]: 159.77 | Pharmacophore protein distance to MET_658 (first MET_658 column) (Table A8-6, 6th residue column, nearest protein atom in cell to the left): 1.07 | Pharmacophore protein distance to MET_658 (second MET_658 column) (Table A8-6, 9th residue column, nearest protein atom in cell to the left): 4.17 | Pharmacophore protein distance to GLY_528 [5]: 4.01 | Pharmacophore protein distance to PHE_529 [5]: 3.09 | Pharmacophore protein distance to PRO_608 [5]: 3.74 | Pharmacophore protein distance to SER_611 [5]: 2.54 | Pharmacophore protein distance to TRP_655 (Table A8-6, pharmacophore elements C6, CA3, O3, H1, nearest protein atom in cell to the left): 3.27

Reference: patent US12195427B2, “MASP-2 inhibitors and methods of use” (priority 2018, dated 2025)
